In patent publication US11033547B2, “Carboxamide-pyrimidine derivatives as SHP2 antagonists” (Merck Patent GmbH, priority 2019, dated 2021):
pIC50: −log10 of the molar value. Where a name gives a salt, the structure may show the parent alone. Read-outs that look alike come from different tables or passages of the source.

Legend:
[1] = target: Kv11.1 (hERG) ion channel (Homo sapiens (Human), UniProt Q12809); type: cell-based; settings: ratio of hERG Ki (patch clamp) to pERK IC50 in KYSE520
Description: Inhibition of the ion channel hErg (or Kv11.1) current causes QT interval prolongation resulting in potentially fatal ventricular tachyarrhythmia called Torsade de Pointes.
hERG ion channel activity was assessed using a patch clamp technique in stable Kv11.1 (hERG) transfected human embryonic kidney cell line (HEK293). Whole cell recordings were carried out with an automated patch clamp device Patchliner™ from Nanion Technologies, Munich following manufacturer recommendation. Different concentrations of the test compound or reference, quinidine, were applied to whole cells suspension and current was measured using a pulse pattern with fixed amplitudes.

[2] = target: Full length SHP2 protein (Recombinant Human SHP-2) (Homo sapiens, UniProt Q06124); test: SHP2 biochemical assay (DiFMUP substrate, activating peptide IRSI_2pY); settings: DiFMUP substrate, activating peptide IRSI_2pY, 60 min at RT; read-out: SHP-2 Biochemical assay IC50
Description: The inhibition of SHP2 by compounds of the invention was monitored using the surrogate substrate DiFMUP after protein activation by a peptide bearing two appropriately spaced phosphotyrosine. […] The generation of the DiFMU product by activated SHP2 was monitored through Fluorescence measurement with a PerkinElmer Envision reader.
The inhibitor dose response curves were analyzed with Genedata Screener.

[3] = Pharmacokinetics in female CD1 mice (oral / intravenous); type: in vivo; settings: mouse PK; for clearance / Vd: female, CD1, plasma, intravenous; for Vd: read-out: Vd ss
Description: Female CD1 mice (N=3) received a single oral (gavage) or a single intravenous (bolus) injection of compound. […] Consecutive blood samples were taken sub-lingually under isofluorane inhalation from animals after 0.083 (IV), 0.25, 0.5, 1, 2, 4, 6 and 24 h and were further processed to obtain plasma. Samples were protein precipitated and analyzed by LC/MS/MS.

[4] = test system: pERK level in KYSE520 cells; test: p-Erk cellular assay in KYSE520 (Mesoscale); type: cell-based; settings: 2 h incubation, read-out: pERK1/2 in KYSE520 IC50
Description: (§1) p-Erk Cellular Assay in MDA-MB-468 and KYSE520:
(§2) The effect of SHP2 inhibitors on pERK level was assessed using phospho-specific antibody using Mesoscale quantification platform. For measuring change in pERK levels using mesoscale, 30,000 cells of MDA MB468 and KYSE520 cells were plated in 96-well tissue culture treated plate in 175 ul volume of media. After an overnight incubation at 37° C., various SHP2 inhibitors were added in different concentration to each well maintaining duplicate wells across plates and incubated with compounds for 2 h at 37° C. followed by a wash with ice cold PBS buffer. The cells were then lysed in lysis buffer and processed and analyzed for p-ERK/ERK as per manufacturer's instructions (Mesoscale discovery, cat No. K15107D-3).

[5] = test system: pERK level in MDA-MB-468 cells; test: p-Erk cellular assay in MDA-MB-468 (Mesoscale); type: cell-based; settings: 2 h incubation, read-out: pERK1/2 in MDA-MB-468 IC50
Description: as §1, §2

Chain of Kv11.1 (hERG) ion channel (Q12809 whole entry): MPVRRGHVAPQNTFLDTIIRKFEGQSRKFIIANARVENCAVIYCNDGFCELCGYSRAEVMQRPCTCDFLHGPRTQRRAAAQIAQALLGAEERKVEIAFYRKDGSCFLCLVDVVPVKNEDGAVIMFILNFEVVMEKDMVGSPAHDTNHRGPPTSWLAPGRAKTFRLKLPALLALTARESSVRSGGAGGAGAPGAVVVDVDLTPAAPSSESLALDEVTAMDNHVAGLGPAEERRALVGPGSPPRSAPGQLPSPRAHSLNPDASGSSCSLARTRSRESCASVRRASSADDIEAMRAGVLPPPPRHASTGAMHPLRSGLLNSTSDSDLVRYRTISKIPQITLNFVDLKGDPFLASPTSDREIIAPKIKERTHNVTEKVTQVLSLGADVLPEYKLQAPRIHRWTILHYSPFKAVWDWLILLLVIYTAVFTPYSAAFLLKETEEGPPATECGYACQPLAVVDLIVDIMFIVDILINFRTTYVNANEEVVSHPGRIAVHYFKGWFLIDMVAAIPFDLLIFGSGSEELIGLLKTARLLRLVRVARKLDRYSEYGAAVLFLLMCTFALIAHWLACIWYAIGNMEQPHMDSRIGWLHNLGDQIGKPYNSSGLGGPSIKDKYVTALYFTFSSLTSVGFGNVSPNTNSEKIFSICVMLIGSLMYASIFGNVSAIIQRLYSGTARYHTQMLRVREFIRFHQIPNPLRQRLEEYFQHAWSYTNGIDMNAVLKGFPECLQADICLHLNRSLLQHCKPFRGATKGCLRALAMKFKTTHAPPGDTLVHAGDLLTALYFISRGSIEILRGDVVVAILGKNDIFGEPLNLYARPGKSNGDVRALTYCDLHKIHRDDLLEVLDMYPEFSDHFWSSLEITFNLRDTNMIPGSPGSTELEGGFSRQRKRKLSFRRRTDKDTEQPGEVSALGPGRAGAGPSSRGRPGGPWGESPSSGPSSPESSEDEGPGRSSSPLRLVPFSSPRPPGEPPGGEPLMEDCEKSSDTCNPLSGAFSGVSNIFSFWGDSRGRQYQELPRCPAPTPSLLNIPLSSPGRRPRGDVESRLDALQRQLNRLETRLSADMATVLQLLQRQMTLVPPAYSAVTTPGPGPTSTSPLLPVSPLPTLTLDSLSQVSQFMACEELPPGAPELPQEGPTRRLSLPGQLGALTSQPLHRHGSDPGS
Chain of Full length SHP2 protein (Recombinant Human SHP-2) (Q06124 2-593 limits assumed): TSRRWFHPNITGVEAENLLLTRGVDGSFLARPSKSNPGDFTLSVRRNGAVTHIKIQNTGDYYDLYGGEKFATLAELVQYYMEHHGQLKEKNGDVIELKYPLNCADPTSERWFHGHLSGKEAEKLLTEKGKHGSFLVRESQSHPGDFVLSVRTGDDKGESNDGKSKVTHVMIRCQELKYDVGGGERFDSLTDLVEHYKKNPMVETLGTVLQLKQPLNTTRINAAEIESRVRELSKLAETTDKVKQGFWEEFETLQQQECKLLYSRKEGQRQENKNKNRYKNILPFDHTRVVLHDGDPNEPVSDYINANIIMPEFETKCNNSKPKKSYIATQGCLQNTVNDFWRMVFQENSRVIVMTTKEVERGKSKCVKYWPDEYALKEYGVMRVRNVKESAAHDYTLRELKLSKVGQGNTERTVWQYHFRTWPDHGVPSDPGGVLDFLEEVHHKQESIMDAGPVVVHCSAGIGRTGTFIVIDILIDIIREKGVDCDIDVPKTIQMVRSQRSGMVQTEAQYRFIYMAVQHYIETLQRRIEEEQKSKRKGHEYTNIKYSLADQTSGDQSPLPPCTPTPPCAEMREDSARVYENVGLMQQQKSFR

Cc1nc(N2CCC3(CC2)Cc2ccccc2[C@H]3N)nc(C(N)=O)c1-c1cccc(Cl)c1Cl (atropisomer, axis not shown; (M)) [Compound 119, (M)-2-[(1S)-1-amino-1,3-dihydrospiro[indene-2,4′-piperidin]-1′-yl]-5-(2,3-dichlorophenyl)-6-methylpyrimidine-4-carboxamide]
Split between hErg and cell activity Ki(patch Clamp)/IC50 (KYSE) [1]: 97

CC1(N)CCN(c2nc(N)c(-c3cccc(Cl)c3Cl)c(C(N)=O)n2)CC1 (single isomer, unassigned) [Compound 27, (4P)-6-Amino-2-(4-amino-4-methyl-piperidin-1-yl)-5-(2,3-dichloro-phenyl)-pyrimidine-4-carboxylic Acid Amide]
pIC50 [2]: 7.09
clearance [3]: 37.3 mL/min/kg
Vd [3]: 8.7 L/kg
Clearance as compared to SHP-099 (in words) [3]: lower clearance
Exposure as compared to SHP-099 (in words) [3]: higher exposure
pIC50 ([4]; Homo sapiens, KYSE-520, 2 h): 5.83
pIC50 ([5]; Homo sapiens, MDA-MB-468, 2 h): 6.47

Cc1nc(N2CCC3(CC2)CO[C@@H](C)[C@H]3N)nc(C(N)=O)c1-c1cccc(Cl)c1Cl (single isomer, unassigned) [Compound 95]
pIC50 [2]: 7.66
clearance [3]: 12.8 mL/min/kg
Vd [3]: 3.99 L/kg
Clearance as compared to SHP-099 (in words) [3]: lower clearance
Exposure as compared to SHP-099 (in words) [3]: higher exposure
pIC50 ([4]; Homo sapiens, KYSE-520, 2 h): 6.31
pIC50 ([5]; Homo sapiens, MDA-MB-468, 2 h): 6.30

NCC1CN(c2nc(N)c(-c3cccc(Cl)c3Cl)c(C(N)=O)n2)CC12CCC2 (centres unmarked) [Compound 11, 6-amino-2-[8-(aminomethyl)-6-azaspiro[3.4]octan-6-yl]-5-(2,3-dichlorophenyl)pyrimidine-4-carboxamide]
pIC50 [2]: 6.23
pIC50 ([4]; Homo sapiens, KYSE-520, 2 h): 4.99
pIC50 ([5]; Homo sapiens, MDA-MB-468, 2 h): 5.74

Cc1nc(N2CCC(C)(N)CC2)nc(C(N)=O)c1-c1cccc(Cl)c1Cl [Compound 18, 2-(4-Amino-4-methyl-piperidin-1-yl)-5-(2,3-dichloro-phenyl)-6-methyl-pyrimidine-4-carboxylic Acid Amide]
pIC50 [2]: 6.98
pIC50 ([4]; Homo sapiens, KYSE-520, 2 h): 5.62
pIC50 [5]: 6.64

CC1(N)CCN(c2nc(N)c(-c3cccc(Cl)c3Cl)c(C(=O)NO)n2)CC1 [Compound 20, 6-Amino-2-(4-amino-4-methyl-piperidin-1-yl)-5-(2,3-dichlorophenyl)-pyrimidine-4-carboxylic Acid Hydroxyamide]
pIC50 [2]: 6.82
pIC50 ([4]; Homo sapiens, KYSE-520, 2 h): 5.07
pIC50 ([5]; Homo sapiens, MDA-MB-468, 2 h): 6.31

NCC12CCCCC1CN(c1nc(N)c(-c3cccc(Cl)c3Cl)c(C(N)=O)n1)C2 (centres unmarked) [Compound 24, 2-[3a-(aminomethyl)-octahydro-1H-isoindol-2-yl]-6-amino-5-(2,3-dichlorophenyl)pyrimidine-4-carboxamide]
pIC50 [2]: 6.57
pIC50 ([4]; Homo sapiens, KYSE-520, 2 h): 5.12
pIC50 ([5]; Homo sapiens, MDA-MB-468, 2 h): 5.63

Cc1nc(NC2CCCC(N)C2)nc(C(N)=O)c1-c1cccc(Cl)c1Cl (centres unmarked) [Compound 28, 2-(3-Amino-cyclohexyl-amino)-5-(2,3-dichloro-phenyl)-6-methyl-pyrimidine-4-carboxylic acid amide]
pIC50 [2]: 6.44
pIC50 ([4]; Homo sapiens, KYSE-520, 2 h): 4.94
pIC50 ([5]; Homo sapiens, MDA-MB-468, 2 h): 5.79

NC(=O)c1nc(N2CCC(N)(CO)CC2)nc(N)c1-c1cccc(Cl)c1Cl [Compound 29, 6-amino-2-[4-amino-4-(hydroxymethyl)piperidin-1-yl]-5-(2,3-dichlorophenyl)-pyrimidine-4-carboxamide]
pIC50 [2]: 6.59
pIC50 ([4]; Homo sapiens, KYSE-520, 2 h): 5.11
pIC50 ([5]; Homo sapiens, MDA-MB-468, 2 h): 5.93

Cc1nc(N(C)C2CCC(N)CC2)nc(C(N)=O)c1-c1cccc(Cl)c1Cl (centres unmarked) [Compound 32, 2-[(4-Amino-cyclohexyl)-methyl-amino]-5-(2,3-dichlorophenyl)-6-methyl-pyrimidine-4-carboxylic acid amide]
pIC50 [2]: 6.70
pIC50 ([4]; Homo sapiens, KYSE-520, 2 h): 5.44
pIC50 ([5]; Homo sapiens, MDA-MB-468, 2 h): 6.13

CC1(CN)CCN(c2nc(N)c(-c3cccc(Cl)c3Cl)c(C(N)=O)n2)CC1 [Compound 41, 6-amino-2-[4-(aminomethyl)-4-methylpiperidin-1-yl]-5-(2,3-dichlorophenyl)pyrimidine-4-carboxamide]
pIC50 [2]: 6.51
pIC50 ([4]; Homo sapiens, KYSE-520, 2 h): 5.52
pIC50 ([5]; Homo sapiens, MDA-MB-468, 2 h): 6.04

Cc1nc(N2CCCC(C)(N)CC2)nc(C(N)=O)c1-c1cccc(Cl)c1Cl (centres unmarked) [Compound 45, 2-(4-Amino-4-methyl-azepan-1-yl)-5-(2,3-dichloro-phenyl)-6-methyl-pyrimidine-4-carboxylic acid amide]
pIC50 [2]: 6.77
pIC50 ([4]; Homo sapiens, KYSE-520, 2 h): 5.68
pIC50 ([5]; Homo sapiens, MDA-MB-468, 2 h): 6.19

NC(=O)c1nc(N2CCCC(N)CC2)nc(N)c1-c1cccc(Cl)c1Cl (centres unmarked) [Compound 49, 6-amino-2-(4-aminoazepan-1-yl)-5-(2,3-dichlorophenyl)-pyrimidine-4-carboxamide]
pIC50 [2]: 6.92
pIC50 ([4]; Homo sapiens, KYSE-520, 2 h): 5.60
pIC50 ([5]; Homo sapiens, MDA-MB-468, 2 h): 6.17

CCCC1(N)CCN(c2nc(N)c(-c3cccc(Cl)c3Cl)c(C(N)=O)n2)CC1 [Compound 53, 6-amino-2-(4-amino-4-propylpiperidin-1-yl)-5-(2,3-dichloro-phenyl)pyrimidine-4-carboxamide]
pIC50 [2]: 6.70
pIC50 ([4]; Homo sapiens, KYSE-520, 2 h): 5.89
pIC50 ([5]; Homo sapiens, MDA-MB-468, 2 h): 6.19

Cc1nc(N2CCC(C)(N)CC2)nc(C(N)=O)c1-c1ccnc(Cl)c1Cl [Compound 81, 2-(4-Amino-4-methyl-piperidin-1-yl)-5-(2,3-dichloro-pyridin-4-yl)-6-methyl-pyrimidine-4-carboxylic acid amide]
pIC50 [2]: 6.14
pIC50 ([4]; Homo sapiens, KYSE-520, 2 h): 4.95
pIC50 ([5]; Homo sapiens, MDA-MB-468, 2 h): 5.77

Cc1nc(N2CCC3(CC2)CO[C@@H](C)[C@H]3N)nc(C(N)=O)c1-c1cccc(Cl)c1Cl [Compound 85, 2-[(3S,4S)-4-amino-3-methyl-2-oxa-8-azaspiro[4.5]decan-8-yl]-5-(2,3-dichlorophenyl)-6-methylpyrimidine-4-carboxamide]
pIC50 [2]: 7.32
pIC50 ([4]; Homo sapiens, KYSE-520, 2 h): 5.91
pIC50 ([5]; Homo sapiens, MDA-MB-468, 2 h): 6.39

CN(c1nc(N)c(-c2cccc(Cl)c2Cl)c(C(N)=O)n1)[C@H]1CC[C@H](N)CC1 [Compound 112, 6-Amino-2-[(4-amino-cyclohexyl)-methyl-amino]-5-(2,3-dichloro-phenyl)-pyrimidine-4-carboxylic acid amide]
pIC50 [2]: 7.18
pIC50 ([4]; Homo sapiens, KYSE-520, 2 h): 6.22
pIC50 ([5]; Homo sapiens, MDA-MB-468, 2 h): 6.17

NC(=O)c1nc(N2CCC3(CC2)Cc2scnc2[C@H]3N)nc(N)c1-c1cccc(Cl)c1Cl [Compound 121, 6-amino-2-[(4S)-4-amino-4,6-dihydrospiro[cyclopenta[d][1,3]thiazole-5,4′-piperidin]-1′-yl]-5-(2,3-dichlorophenyl)pyrimidine-4-carboxamide]
pIC50 [2]: 8.70
pIC50 ([4]; Homo sapiens, KYSE-520, 2 h): 7.80
Split between hErg and cell activity Ki(patch Clamp)/IC50 (KYSE) [1]: >600

NC(=O)c1nc(N2CCC3(CC2)Oc2ccccc2[C@H]3N)nc(N)c1-c1cccc(Cl)c1Cl [Compound 123, 6-amino-2-((R)-3-amino-3H-spiro[benzofuran-2,4′-piperidin]-1′-yl)-5-(2,3-dichlorophenyl)pyrimidine-4-carboxamide di-hydrochloride]
pIC50 [2]: 7.82
pIC50 ([4]; Homo sapiens, KYSE-520, 2 h): 7.24
Split between hErg and cell activity Ki(patch Clamp)/IC50 (KYSE) [1]: >100

CC1(N)CCN(c2nc(N)c(-c3cccc(Cl)c3Cl)c(C(N)=O)n2)CC1 [Compound No. 3, 6-Amino-2-(4-amino-4-methyl-piperidin-1-yl)-5-(2,3-dichlorophenyl)-pyrimidine-4-carboxylic Acid Amide]
pIC50 [2]: 6.80
pIC50 [4]: 6.12
pIC50 [5]: 6.46
Split between hErg and cell activity Ki(patch Clamp)/IC50 (KYSE) [1]: >14

C[C@@H]1OCC2(CCN(c3nc(N)c(-c4cccc(Cl)c4Cl)c(C(N)=O)n3)CC2)[C@@H]1N [Compound No. 5, 6-amino-2-[(3S,4S)-4-amino-3-methyl-2-oxa-8-azaspiro[4.5]decan-8-yl]-5-(2,3-dichlorophenyl)pyrimidine-4-carboxamide]
pIC50 [2]: 7.14
pIC50 ([4]; Homo sapiens, KYSE-520, 2 h): 5.96
pIC50 ([5]; Homo sapiens, MDA-MB-468, 2 h): 6.00
Split between hErg and cell activity Ki(patch Clamp)/IC50 (KYSE) [1]: >10
